In patent publication US20130040944A1, “MGLUR4 ALLOSTERIC POTENTIATORS, COMPOSITIONS, AND METHODS OF TREATING NEUROLOGICAL DYSFUNCTION” (VANDERBILT UNIVERSITY, priority 2009, published 2013):

Target: human mGluR4 (Homo sapiens, UniProt Q14833)
Test: potentiation of human mGluR4 in transfected CHO cells, Ca2+-sensitive dye fluorescence, EC20 agonist
Conditions: hEC50, human mGluR4 potentiation; unit inferred

human mGluR4, sequence (Q14833 33-912): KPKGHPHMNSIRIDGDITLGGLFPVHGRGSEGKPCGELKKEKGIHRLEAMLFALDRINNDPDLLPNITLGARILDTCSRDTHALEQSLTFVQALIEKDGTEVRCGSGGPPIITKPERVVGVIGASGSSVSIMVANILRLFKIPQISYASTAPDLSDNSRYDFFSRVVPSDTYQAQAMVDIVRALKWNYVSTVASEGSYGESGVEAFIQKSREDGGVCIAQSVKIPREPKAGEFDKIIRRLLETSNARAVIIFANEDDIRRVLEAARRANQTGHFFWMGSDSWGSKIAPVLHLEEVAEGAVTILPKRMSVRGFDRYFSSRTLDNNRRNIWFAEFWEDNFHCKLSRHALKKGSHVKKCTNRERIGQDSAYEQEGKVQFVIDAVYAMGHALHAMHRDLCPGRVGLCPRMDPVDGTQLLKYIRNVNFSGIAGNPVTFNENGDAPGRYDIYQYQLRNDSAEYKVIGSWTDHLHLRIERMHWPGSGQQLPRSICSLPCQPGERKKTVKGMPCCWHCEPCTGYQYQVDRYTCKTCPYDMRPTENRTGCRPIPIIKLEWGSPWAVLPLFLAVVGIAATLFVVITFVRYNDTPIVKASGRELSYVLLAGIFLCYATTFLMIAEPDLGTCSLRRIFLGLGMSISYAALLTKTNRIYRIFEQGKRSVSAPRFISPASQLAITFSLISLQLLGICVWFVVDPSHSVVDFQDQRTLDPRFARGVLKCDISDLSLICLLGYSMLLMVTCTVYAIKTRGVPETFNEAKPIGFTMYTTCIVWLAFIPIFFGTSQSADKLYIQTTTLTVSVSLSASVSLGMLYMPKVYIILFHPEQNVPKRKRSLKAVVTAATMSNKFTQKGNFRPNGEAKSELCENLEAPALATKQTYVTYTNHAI

Row | SMILES | EC50
1 | Cc1nc(C)c(S(=O)(=O)n2ccc(NC(=O)c3ccccn3)c2)s1 [Example 127, N-(1-((2,4-dimethylthiazol-5-yl)sulfonyl)-1H-pyrrol-3-yl)picolinamide] | 2.95 µM
2 | O=C(Nc1ccn(S(=O)(=O)c2ccc(F)c(Cl)c2)c1)c1ccccn1 [Example 128, N-(1-((3-chloro-4-fluorophenyl)sulfonyl)-1H-pyrrol-3-yl)picolinamide] | 0.64 µM
3 | COc1ccc(S(=O)(=O)n2ccc(NC(=O)c3ccccn3)c2)cc1 [Example 129, N-(1-((4-methoxyphenyl)sulfonyl)-1H-pyrrol-3-yl)picolinamide] | 0.107 µM
4 | N#Cc1ccc(S(=O)(=O)n2ccc(NC(=O)c3ccccn3)c2)cc1 [Example 130, N-(1-((4-cyanophenyl)sulfonyl)-1H-pyrrol-3-yl)picolinamide] | 0.22 µM
5 | O=C(Nc1ccn(S(=O)(=O)c2ccc(Cl)s2)c1)c1ccccn1 [Example 131, N-(1-((5-chlorothiophen-2-yl)sulfonyl)-1H-pyrrol-3-yl)picolinamide] | 1.04 µM
6 | O=C(Nc1ccn(S(=O)(=O)c2ccsc2)c1)c1ccccn1 [Example 132, N-(1-(thiophen-3-ylsulfonyl)-1H-pyrrol-3-yl)picolinamide] | 0.413 µM
7 | O=C(Nc1ccn(S(=O)(=O)c2ccc3c(c2)OCO3)c1)c1ccccn1 [Example 133, N-(1-(benzo[d][1,3]dioxol-5-ylsulfonyl)-1H-pyrrol-3-yl)picolinamide] | 0.11 µM
8 | O=C(Nc1ccn(S(=O)(=O)c2cccs2)c1)c1ccccn1 [Example 134, N-(1-(thiophen-2-ylsulfonyl)-1H-pyrrol-3-yl)picolinamide] | 0.08 µM
9 | Cc1ccc(S(=O)(=O)n2ccc(NC(=O)c3ccccn3)c2)s1 [Example 135, N-(1-((5-methylthiophen-2-yl)sulfonyl)-1H-pyrrol-3-yl)picolinamide] | 0.0887 µM
10 | O=C(Nc1ccn(S(=O)(=O)c2cnc3ccccc3c2)c1)c1ccccn1 [Example 136, N-(1-(quinolin-3-ylsulfonyl)-1H-pyrrol-3-yl)picolinamide] | 0.253 µM
11 | O=C(Nc1ccn(S(=O)(=O)c2cccnc2Cl)c1)c1ccccn1 [Example 137, N-(1-((2-chloropyridin-3-yl)sulfonyl)-1H-pyrrol-3-yl)picolinamide] | 3.79 µM
12 | O=C(Nc1ccn(S(=O)(=O)c2ccc(Cl)cc2F)c1)c1ccccn1 [Example 138, N-(1-((4-chloro-2-fluorophenyl)sulfonyl)-1H-pyrrol-3-yl)picolinamide] | 0.243 µM
13 | O=C(Nc1ccn(S(=O)(=O)c2ccc(F)c(F)c2F)c1)c1ccccn1 [Example 139, N-(1-((2,3,4-trifluorophenyl)sulfonyl)-1H-pyrrol-3-yl)picolinamide] | 0.301 µM
14 | COc1ccc(S(=O)(=O)n2ccc(NC(=O)c3ccccn3)c2)cn1 [Example 140, N-(1-((6-methoxypyridin-3-yl)sulfonyl)-1H-pyrrol-3-yl)picolinamide] | 0.116 µM
15 | Cc1noc(C)c1S(=O)(=O)n1ccc(NC(=O)c2ccccn2)c1 [Example 141, N-(1-((3,5-dimethylisoxazol-4-yl)sulfonyl)-1H-pyrrol-3-yl)picolinamide] | 8.32 µM
16 | Cn1cc(S(=O)(=O)n2ccc(NC(=O)c3ccccn3)c2)cn1 [Example 143, N-(1-((1-methyl-1H-pyrazol-4-yl)sulfonyl)-1H-pyrrol-3-yl)picolinamide] | 4.79 µM
17 | O=C(Nc1ccn(S(=O)(=O)c2ccc(N3CCOCC3)nc2)c1)c1ccccn1 [Example 144, N-(1-((6-morpholinopyridin-3-yl)sulfonyl)-1H-pyrrol-3-yl)picolinamide] | 1.07 µM
18 | CN1CCOc2cc(S(=O)(=O)n3ccc(NC(=O)c4ccccn4)c3)ccc21 [Example 146, N-(1-((4-methyl-3,4-dihydro-2H-benzo[b][1,4]oxazin-7-yl)sulfonyl)-1H-pyrrol-3-yl)picolinamide] | 0.144 µM
19 | O=C(Nc1ccn(S(=O)(=O)c2ccc(CCl)cc2)c1)c1ccccn1 [Example 147, N-(1-((4-(chloromethyl)phenyl)sulfonyl)-1H-pyrrol-3-yl)picolinamide] | 0.225 µM
20 | O=C(Nc1ccn(S(=O)(=O)c2ccc3c(c2)OCCCO3)c1)c1ccccn1 [Example 148, N-(1-((3,4-dihydro-2H-benzo[b][1,4]dioxepin-7-yl)sulfonyl)-1H-pyrrol-3-yl)picolinamide] | 0.0411 µM

Row | SMILES | EC50
21 | CC1(C)CCc2cc(S(=O)(=O)n3ccc(NC(=O)c4ccccn4)c3)ccc2O1 [Example 149, N-(1-((2,2-dimethylchroman-6-yl)sulfonyl)-1H-pyrrol-3-yl)picolinamide] | 0.351 µM
22 | O=C(Nc1ccn(S(=O)(=O)c2ccc3occc3c2)c1)c1ccccn1 [Example 150, N-(1-(benzofuran-5-ylsulfonyl)-1H-pyrrol-3-yl)picolinamide] | 0.0843 µM
23 | Cc1ccc(S(=O)(=O)n2cc(NC(=O)c3ccccn3)cc2C)cc1 [Example 151, N-(5-methyl-1-tosyl-1H-pyrrol-3-yl)picolinamide] | 3.81 µM
24 | O=C1CCc2ccc(S(=O)(=O)n3ccc(NC(=O)c4ccccn4)c3)cc2N1 [Example 152, N-(1-((2-oxo-1,2,3,4-tetrahydroquinolin-7-yl)sulfonyl)-1H-pyrrol-3-yl)picolinamide] | 0.917 µM
25 | COC(=O)c1ccc(S(=O)(=O)n2ccc(NC(=O)c3ccccn3)c2)cc1 [Example 153, Methyl 4-((3-(picolinamido)-1H-pyrrol-1-yl)sulfonyl)benzoate] | 0.285 µM
26 | O=C(Nc1ccn(S(=O)(=O)c2ccc(N3CCCC3=O)cc2)c1)c1ccccn1 [Example 154, N-(1-((4-(2-oxopyrrolidin-1-yl)phenyl)sulfonyl)-1H-pyrrol-3-yl)picolinamide] | 0.543 µM
27 | O=C(O)c1ccc(S(=O)(=O)n2ccc(NC(=O)c3ccccn3)c2)cc1 [Example 155, 4-((3-(picolinamido)-1H-pyrrol-1-yl)sulfonyl)benzoic acid] | 6.38 µM
28 | O=C(Nc1ccn(S(=O)(=O)c2ccc3c(c2)OCCO3)c1)c1ccccn1 [Example 156, N-(1-((2,3-dihydrobenzo[b][1,4]dioxin-6-yl)sulfonyl)-1H-pyrrol-3-yl)picolinamide] | 0.0453 µM
29 | Cc1ccc(S(=O)(=O)c2cc(NC(=O)c3ccccn3)cn2C)cc1 [Example 157, N-(1-methyl-5-tosyl-1H-pyrrol-3-yl)picolinamide] | 3.68 µM
30 | O=C(Nc1ccn(S(=O)(=O)c2ccc3[nH]c(=O)sc3c2)c1)c1ccccn1 [Example 158, N-(1-((2-oxo-2,3-dihydrobenzo[d]thiazol-6-yl)sulfonyl)-1H-pyrrol-3-yl)picolinamide] | 0.55 µM
31 | Cn1ccc(S(=O)(=O)n2ccc(NC(=O)c3ccccn3)c2)n1 [Example 159, N-(1-((1-methyl-1H-pyrazol-3-yl)sulfonyl)-1H-pyrrol-3-yl)picolinamide] | 0.931 µM
32 | O=C(Nc1ccn(S(=O)(=O)c2ccccn2)c1)c1ccccn1 [Example 160, N-(1-(pyridin-2-ylsulfonyl)-1H-pyrrol-3-yl)picolinamide] | 1.49 µM
33 | O=C(Nc1ccn(S(=O)(=O)c2ccc(CO)cc2)c1)c1ccccn1 [Example 161, N-(1-((4-(hydroxymethyl)phenyl)sulfonyl)-1H-pyrrol-3-yl)picolinamide] | 1.21 µM
34 | O=C(Nc1ccn(S(=O)(=O)c2cccc(Cl)c2F)c1)c1ccco1 [Example 162, N-(1-((3-chloro-2-fluorophenyl)sulfonyl)-1H-pyrrol-3-yl)furan-2-carboxamide] | 2.54 µM
35 | O=C(Nc1ccn(S(=O)(=O)c2ccc(OC(F)F)cc2)c1)c1ccco1 [Example 163, N-(1-((4-(difluoromethoxy)phenyl)sulfonyl)-1H-pyrrol-3-yl)furan-2-carboxamide] | 3.24 µM
36 | COc1ccc(S(=O)(=O)n2ccc(NC(=O)c3ccco3)c2)cc1 [Example 164, N-(1-((4-methoxyphenyl)sulfonyl)-1H-pyrrol-3-yl)furan-2-carboxamide] | 0.701 µM
37 | O=C(Nc1ccn(S(=O)(=O)c2ccc3c(c2)OCO3)c1)c1ccco1 [Example 166, N-(1-(benzo[d][1,3]dioxol-5-ylsulfonyl)-1H-pyrrol-3-yl)furan-2-carboxamide] | 1.94 µM
38 | O=C(Nc1ccn(S(=O)(=O)c2ccc(Cl)cn2)c1)c1ccco1 [Example 167, N-(1-((5-chloropyridin-2-yl)sulfonyl)-1H-pyrrol-3-yl)furan-2-carboxamide] | 2.86 µM
39 | COc1ccc(S(=O)(=O)n2ccc(NC(=O)c3ccco3)c2)cn1 [Example 168, N-(1-((6-methoxypyridin-3-yl)sulfonyl)-1H-pyrrol-3-yl)furan-2-carboxamide] | 2.12 µM
40 | O=C(Nc1ccn(S(=O)(=O)c2ccc(Cl)cc2F)c1)c1ccco1 [Example 169, N-(1-((4-chloro-2-fluorophenyl)sulfonyl)-1H-pyrrol-3-yl)furan-2-carboxamide] | 4.13 µM
